The source of these data is PubChem BioAssay AID652146 (Broad Institute, 2013).

The AC50 is the midpoint of the concentration-response curve, whichever way the signal moves.

The target of this experiment is Protein disulfide-isomerase (Homo sapiens) (UniProt P07237). The experiment is described as follows: inhibition of PDI-mediated insulin reduction – biochemical, turbidity, dry powder samples, set 2, confirmation (AID 652146). The conditions noted are these: plate reader.
Protein disulfide-isomerase (Homo sapiens), sequence (P07237 whole entry, looked up): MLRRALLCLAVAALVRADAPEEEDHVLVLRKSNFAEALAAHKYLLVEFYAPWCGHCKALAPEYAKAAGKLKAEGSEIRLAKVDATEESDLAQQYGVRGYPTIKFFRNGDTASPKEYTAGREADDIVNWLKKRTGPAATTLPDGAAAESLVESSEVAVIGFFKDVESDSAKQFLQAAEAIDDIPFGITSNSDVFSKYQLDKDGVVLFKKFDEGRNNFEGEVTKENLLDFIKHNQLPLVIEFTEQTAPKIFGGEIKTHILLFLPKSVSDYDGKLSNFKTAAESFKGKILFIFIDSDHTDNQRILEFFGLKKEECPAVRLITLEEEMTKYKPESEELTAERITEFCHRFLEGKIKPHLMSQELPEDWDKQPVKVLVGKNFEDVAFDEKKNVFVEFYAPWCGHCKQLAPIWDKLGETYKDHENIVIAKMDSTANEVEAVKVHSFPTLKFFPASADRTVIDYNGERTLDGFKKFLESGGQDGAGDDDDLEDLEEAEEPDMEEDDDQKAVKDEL

Regarding `CCOC(=O)C1(CCOc2ccccc2)CCN(Cc2ccc(O)c(Cl)c2)CC1`, the AC50 was 100 nM.
